Consider 19 compounds from patent US20230083012A1, “DIHYDROPYRIMIDINE DERIVATIVES AND USES THEREOF IN THE TREATMENT OF HBV INFECTION OR OF HBV-INDUCED DISEASES” (priority 2019, published 2023).

SMILES strings stand for the structures. pEC50: −log10 of the molar value.

The subject of one data set is HBV. The experiment in a line: Anti-HBV activity in HepG2.2.15 cells (HBV DNA in culture medium by qPCR). Format: cell-based. The following applies: Hepatitis B virus, HepG2.2.15, 144 h, HepG2.2.15 cells, 6 days treatment, HBV DNA in culture medium quantified by real-time PCR; read-out: EC50. On the procedure: Example 2: Anti-Viral Assay in HepG2.2.15 Cells
(§1) HepG2.2.15 (the HepG2.2.15 cell line can be produced by transfection of the HepG2 cell line as described in Sells, Chen, and Acs 1987 (Proc. Natl. Acad. Sci. USA 84: 1005-1009), and the HepG2 cell line is available from ATCC® under number HIB-8065™)
(§2) HepG2.2.15 cells were plated into 96-well plate in 2% FBS culture medium at the density of 40,000 cells/well and 5,000 cells/well for HBV inhibitory activity and cytotoxicity determination, respectively. After incubation at 37° C., 5% CO2 overnight, cells were treated with medium containing compounds for 6 days with medium and compounds refreshed after 3 days of treatment. Each compound was tested in a 1:3 serial dilutions at 8 different concentrations in triplicate. The highest concentration of the compounds was 10 uM or 1 uM for anti-HBV activity assay and 100 uM for cytotoxicity determination.
The change of HBV DNA level induced by the compounds was assessed by quantitative real-time polymerase chain reaction (qPCR). Briefly, the HBV DNA in the culture medium was extracted using QIAamp 96 DNA Blood Kit according to the manual and then quantified by real-time PCR assay using the primers and probe in the table 2 below.
(§3) 2) DATA Analysis EC50 and CC50 values are calculated by the GRAPTIPAD PRISM software.

The nature of data set [1]: Cytotoxicity determination in HepG2.2.15 cells (CCK-8 cell viability). Format: cell-based. The settings on record: human, 6 days treatment, CCK-8 assay, highest concentration 100 uM. On the procedure: as §1, §2
Cell viability was determined by CCK-8 assay. After 6 days of compounds treatment, 20 μl CCK-8 reagents were added to each well of cytotoxicity assay plates. Cell plates were incubated at 37° C., 5% CO2 for 2.5 h. The absorbance at 450 nm wavelength and the absorbance at 630 nm wavelength as reference was measured.
as §3
Background: Formazan colour is commonly taken as a measure of viable cells.

For the compound `CCOC(=O)C1=C(CN2CC(F)(F)[C@H]3[C@@H]2CCN3CC(C)(C)C(=O)O)NC(c2nccs2)=N[C@H]1c1cccc(F)c1C` (relative stereo) [Compound 1A, 3-(4-(((S)-5-(ethoxycarbonyl)-6-(3-fluoro-2-methylphenyl)-2-(thiazol-2-yl)-3,6-dihydropyrimidin-4-yl)methyl)-6,6-difluorohexahydropyrrolo[3,2-b]pyrrol-1(2H)-yl)-2,2-dimethylpropanoic acid], in the data set with HBV, the pEC50 is 8.89. In addition, it took 15000 nM to reach half-maximal cytotoxicity in data set [1] (CC50 at 6 days).
In the same order, the values of `CCOC(=O)C1=C(CN2CC[C@]3(F)C(=O)N(CC(C)(C)C(=O)O)C[C@H]23)NC(c2nccs2)=N[C@H]1c1cccc(F)c1C` (relative stereo) [Compound 3B, 3-(1-(((S)-5-(ethoxycarbonyl)-6-(3-fluoro-2-methylphenyl)-2-(thiazol-2-yl)-3,6-dihydropyrimidin-4-yl)methyl)-3a-fluoro-4-oxohexahydropyrrolo[3,4-b]pyrrol-5(1H)-yl)-2,2-dimethylpropanoic acid] are 7.41 and 51800 nM.
The matching figures for `CCOC(=O)C1=C(CN2CC[C@H]3C(=O)N(CC(C)(C)C(=O)O)C(=O)[C@H]32)NC(c2nccs2)=N[C@H]1c1cccc(F)c1C` (relative stereo) [Compound 4A, 3-(1-(((S)-5-(ethoxycarbonyl)-6-(3-fluoro-2-methylphenyl)-2-(thiazol-2-yl)-3,6-dihydropyrimidin-4-yl)methyl)-4,6-dioxohexahydropyrrolo[3,4-b]pyrrol-5(1H)-yl)-2,2-dimethylpropanoic acid]: 8.20 and 32600 nM.
In the same order, the values of `CCOC(=O)C1=C(CN2CC(F)(F)[C@@H]3C(=O)N(CC(C)(C)C(=O)O)C[C@@H]32)NC(c2nccs2)=N[C@H]1c1cccc(F)c1C` (relative stereo) [Compound 5A, 3-(1-(((S)-5-(ethoxycarbonyl)-6-(3-fluoro-2-methylphenyl)-2-(thiazol-2-yl)-3,6-dihydropyrimidin-4-yl)methyl)-3,3-difluoro-4-oxohexahydropyrrolo[3,4-b]pyrrol-5(1H)-yl)-2,2-dimethylpropanoic acid] are 8.09 and 70400 nM.
For `CCOC(=O)C1=C(CN2CC(F)(F)[C@H]3[C@@H]2CCN3CC2(C(=O)O)CC2)NC(c2nccs2)=N[C@H]1c1cccc(F)c1C` (relative stereo) [Compound 38A, 1-((4-(((S)-5-(ethoxycarbonyl)-6-(3-fluoro-2-methylphenyl)-2-(thiazol-2-yl)-3,6-dihydropyrimidin-4-yl)methyl)-6,6-difluorohexahydropyrrolo[3,2-b]pyrrol-1(2H)-yl)methyl)cyclopropane-1-carboxylic acid], the pEC50 with HBV was 8.82. Moreover, in data set [1], half-maximal cytotoxicity (CC50 at 6 days) was put at 20000 nM.
Turning to `CCOC(=O)C1=C(CN2CC(F)(F)[C@H]3[C@@H]2CCN3C2CC(C(=O)O)C2)NC(c2nccs2)=N[C@H]1c1cccc(F)c1C` (relative stereo) [Compound 39A, 3-(4-(((S)-5-(ethoxycarbonyl)-6-(3-fluoro-2-methylphenyl)-2-(thiazol-2-yl)-3,6-dihydropyrimidin-4-yl)methyl)-6,6-difluorohexahydropyrrolo[3,2-b]pyrrol-1(2H)-yl)cyclobutane-1-carboxylic acid], in the data set with HBV, the pEC50 is 8.62. In data set [1], this compound registered a CC50 at 6 days of 35000 nM.
The matching figures for `CCOC(=O)C1=C(CN2CC(F)(F)[C@H]3[C@@H]2CCN3CC2(CC(=O)O)CC2)NC(c2nccs2)=N[C@H]1c1cccc(F)c1C` (relative stereo) [Compound 49, 2-(1-((4-(((S)-5-(ethoxycarbonyl)-6-(3-fluoro-2-methylphenyl)-2-(thiazol-2-yl)-3,6-dihydropyrimidin-4-yl)methyl)-6,6-difluorohexahydropyrrolo[3,2-b]pyrrol-1(2H)-yl)methyl)cyclopropyl)-acetic acid]: 7.49 and 25500 nM.
For the compound `CCOC(=O)C1=C(CN2CC(F)(F)[C@@H]3[C@H]2CN(C)N3CCC(C)(C)C(=O)O)NC(c2nccs2)=N[C@H]1c1cccc(F)c1C` (relative stereo) [Compound 68A, 4-(4-(((S)-5-(ethoxycarbonyl)-6-(3-fluoro-2-methylphenyl)-2-(thiazol-2-yl)-3,6-dihydropyrimidin-4-yl)methyl)-6,6-difluoro-2-methylhexahydropyrrolo[3,2-c]pyrazol-1(2H)-yl)-2,2-dimethylbutanoic acid], the pEC50 with HBV is 8.13. This compound showed a CC50 at 6 days in data set [1] of 22200 nM.
In the same order, the values of `CCOC(=O)C1=C(CN2CC(F)(F)[C@@H]3[C@H]2CON3CCC(C)(C)C(=O)O)NC(c2nccs2)=N[C@H]1c1cccc(F)c1C` (relative stereo) [Compound 69A, 4-(4-(((S)-5-(ethoxycarbonyl)-6-(3-fluoro-2-methylphenyl)-2-(thiazol-2-yl)-3,6-dihydropyrimidin-4-yl)methyl)-6,6-difluorohexahydro-1H-pyrrolo[3,2-c]isoxazol-1-yl)-2,2-dimethylbutanoic acid] are 9.15 and 37000 nM.
In the same order, the values of `CCOC(=O)C1=C(CN2CC(F)(F)[C@H]3[C@@H]2CN(CC(C)(C)C(=O)O)N3C)NC(c2nccs2)=N[C@H]1c1cccc(F)c1C` (relative stereo) [Compound 87, 3-((cis)-4-(((S)-5-(ethoxycarbonyl)-6-(3-fluoro-2-methylphenyl)-2-(thiazol-2-yl)-3,6-dihydropyrimidin-4-yl)methyl)-6,6-difluoro-1-methylhexahydropyrrolo[3,2-c]pyrazol-2(1H)-yl)-2,2-dimethylpropanoic acid] are 7.85 and above 50000 nM.
`CCOC(=O)C1=C(CN2CC(F)(F)[C@H]3[C@@H]2CCN3CCC(C)(C)C(=O)O)NC(c2ncoc2C)=N[C@@H]1c1cccc(F)c1C` (relative stereo) [Compound 107, 4-(4-((5-(ethoxycarbonyl)-6-(3-fluoro-2-methylphenyl)-2-(5-methyloxazol-4-yl)-3,6-dihydropyrimidin-4-yl)methyl)-6,6-difluorohexahydropyrrolo[3,2-b]pyrrol-1(2H)-yl)-2,2-dimethylbutanoic acid]: the pEC50 in the data set with HBV was 7.95. Moreover, the midpoint of cytotoxicity in data set [1], the CC50 at 6 days, lay at 42500 nM.
The matching figures for `CCOC(=O)C1=C(CN2CC(F)(F)[C@H]3[C@@H]2CCN3CC[C@H]2C[C@@H]2C(=O)O)NC(c2nccs2)=N[C@H]1c1cccc(F)c1C` (relative stereo) [Compound 110, (trans)-2-(2-((cis)-4-(((S)-5-(ethoxycarbonyl)-6-(3-fluoro-2-methylphenyl)-2-(thiazol-2-yl)-3,6-dihydropyrimidin-4-yl)methyl)-6,6-difluorohexahydropyrrolo[3,2-b]pyrrol-1(2H)-yl)ethyl)cyclopropane-1-carboxylic acid]: 9.22 and 23500 nM.
The matching figures for `CCOC(=O)C1=C(CN2CC(F)(F)[C@H]3[C@@H]2CCN3CCC(C)(C)C(=O)O)NC(c2nccs2)=N[C@@H]1c1ccc(F)nc1C` (relative stereo) [Compound 121, 4-((cis)-4-(((R)-5-(ethoxycarbonyl)-6-(6-fluoro-2-methylpyridin-3-yl)-2-(thiazol-2-yl)-3,6-dihydropyrimidin-4-yl)methyl)-6,6-difluorohexahydropyrrolo[3,2-b]pyrrol-1(2H)-yl)-2,2-dimethylbutanoic acid]: 8.06 and above 100000 nM.
As to `CCOC(=O)C1=C(CN2CC(F)(F)[C@@H]3[C@H]2CCN3CC(=O)O)NC(c2nccs2)=N[C@H]1c1cccc(F)c1C` (single isomer, unassigned) [Compound 6A], the pEC50 in the data set on HBV is 8.44. Moreover, it took 30400 nM to reach half-maximal cytotoxicity in data set [1] (CC50 at 6 days).
In the same order, the values of `CCOC(=O)C1=C(CN2CC(F)(F)[C@H]3[C@@H]2CCN3CC(=O)O)NC(c2nccs2)=N[C@H]1c1cccc(F)c1C` (single isomer, unassigned) [Compound 6B] are 6.42 and 34700 nM.
Turning to `CCOC(=O)C1=C(CN2CC(F)(F)[C@H]3[C@@H]2CCN3CC(=O)NS(C)(=O)=O)NC(c2nccs2)=N[C@H]1c1cccc(F)c1C` (single isomer, unassigned) [Compound 8A], the pEC50 in the data set on HBV is 8.16. For the same compound, half-maximal cytotoxicity in data set [1] (CC50 at 6 days) was put at 36300 nM.
The matching figures for `CCOC(=O)C1=C(CN2CC(F)(F)[C@@H]3CN(C(=O)C(C)(C)C(=O)O)C[C@@H]32)NC(c2nccs2)=N[C@H]1c1cccc(F)c1C` (single isomer, unassigned) [Compound 9A]: 7.95 and 57800 nM.
The matching figures for `CCOC(=O)C1=C(CN2CC(F)(F)[C@@H]3CN(C(=O)C4(C(=O)O)CC4)C[C@@H]32)NC(c2nccs2)=N[C@H]1c1cccc(F)c1C` (single isomer, unassigned) [Compound 10]: 7.09 and 69600 nM.
In the same order, the values of `CCOC(=O)C1=C(CN2C[C@H](F)[C@H]3[C@@H]2CCN3CC(C)(C)C(=O)O)NC(c2nccs2)=N[C@H]1c1cccc(F)c1C` (single isomer, unassigned) [Compound 11B] are 7.50 and 30000 nM.

Broadly, the pEC50 is the EC50 on a negative log10 scale, so that one unit is a factor of ten. For orientation: CC50 means the concentration giving 50% cytotoxicity. Read a high CC50 as lower toxicity to the cells.
